US7504426B2, “Heterocyclic compounds” (Janssen Pharmaceutica N.V., priority 2003, dated 2009)

Assays:
[1] = biological target: T1, human histamine H4 receptor (Homo sapiens, UniProt Q9H3N8); assay: biochemical
human eosinophils = assay: Inhibition of histamine-induced eosinophil shape change (GAFS); format: cell-based; conditions: for effect on histamine-induced shape change: human eosinophils
Description: Eosinophil accumulation in sites of allergic reaction is a well-known characteristic of allergic rhinitis and asthma. […] Shape change is a cellular characteristic that precedes eosinophil chemotaxis.
Human granulocytes were isolated from human blood by a Ficoll gradient. The red blood cells were lysed with 5-10X Qiagen lysis buffer at room temperature for 5-7 min. Granulocytes were harvested and washed once with FACS buffer. The cells were resuspended at a density of 2×10^6 cells/mL in reaction buffer. […] Ten minutes later the cells were transferred to ice and fixed with 250 μL of ice-cold fixative buffer (2% formaldehyde) for 1 min.
The change in shape of eosinophils is due to cytoskeletal changes that precede chemotaxis and thus is a measure of chemotaxis.

[2] = biological target: T1, human histamine H4 receptor; assay: Binding assay on recombinant human histamine H4 receptor (3H-histamine displacement); conditions: read-out: Binding Assay Ki; repeated in the chemotaxis table
[3] = histamine 0 μM, HR antagonist 10 μM
[4] = histamine 0.01 μM, HR antagonist 10 μM or none
[5] = histamine 0.1 μM, HR antagonist 10 μM or none
[6] = histamine 1 μM, HR antagonist 10 μM or none
[7] = histamine 10 μM, HR antagonist 10 μM or none

T1 sequence (Q9H3N8 whole entry): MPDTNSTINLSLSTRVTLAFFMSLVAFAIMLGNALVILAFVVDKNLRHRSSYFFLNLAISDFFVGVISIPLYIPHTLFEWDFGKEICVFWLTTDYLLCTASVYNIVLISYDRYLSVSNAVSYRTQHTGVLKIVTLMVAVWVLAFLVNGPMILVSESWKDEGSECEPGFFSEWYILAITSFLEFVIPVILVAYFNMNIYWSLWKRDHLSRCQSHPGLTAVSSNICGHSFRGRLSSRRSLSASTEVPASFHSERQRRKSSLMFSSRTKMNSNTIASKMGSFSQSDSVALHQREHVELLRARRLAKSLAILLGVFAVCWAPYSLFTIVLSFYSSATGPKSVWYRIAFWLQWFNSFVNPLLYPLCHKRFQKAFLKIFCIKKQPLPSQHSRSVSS

SMILES | Ki [1] [µM] | other results
CN1C2CCC1CC(NC(=O)c1nc3cc(F)c(F)cc3[nH]1)C2 (stereo not shown) [Example 13, 5,6-Difluoro-1H-benzoimidazole-2-carboxylic acid (8-methyl-8-aza-bicyclo[3.2.1]oct-3-yl)-amide] | 0.38 | –
CCN1CCN(C(=O)c2nc3ccccc3[nH]2)CC1 [Example 2, (1H-Benzoimidazol-2-yl)-(4-ethyl-piperazin-1-yl)-methanone] | 0.49 | –
O=C(c1nc2cc(F)ccc2[nH]1)N1CCNCC1 [Example 31, (5-Fluoro-1H-benzoimidazol-2-yl)-piperazin-1-yl-methanone] | 0.042 | –
CN1CCN(C(=O)c2nc3cc(Br)ccc3[nH]2)CC1 [Example 49, (5-Bromo-1H-benzoimidazol-2-yl)-(4-methyl-piperazin-1-yl)-methanone] | 0.051 | –
CN1CCN(C(=O)c2nc3cc(C(F)(F)F)ccc3[nH]2)CC1 [Example 27, (4-Methyl-piperazin-1-yl)-(5-trifluoromethyl-1H-benzoimidazol-2-yl)-methanone] | 0.011 | –
CN1C2CCC1CC(NC(=O)c1nc3cc(F)c(Cl)cc3[nH]1)C2 (stereo not shown) [Example 17, 6-Chloro-5-fluoro-1H-benzoimidazole-2-carboxylic acid (8-methyl-8-aza-bicyclo[3.2.1]oct-3-yl)-amide] | 0.535 | –
CC1CN(C(=O)c2nc3cc(Cl)ccc3[nH]2)CCN1 (stereo not shown) [Example 8, (5-Chloro-1H-benzoimidazol-2-yl)-(3-methyl-piperazin-1-yl)-methanone] | 0.3 | –
CN1CCN(C(=O)c2nc3cc([N+](=O)[O-])ccc3[nH]2)CC1 [Example 47, (4-Methyl-piperazin-1-yl)-(5-nitro-1H-benzoimidazol-2-yl)-methanone] | 0.158 | –
CN1C2CCC1CC(NC(=O)c1nc3ccccc3[nH]1)C2 (stereo not shown) [Example 5, 1H-Benzoimidazole-2-carboxylic acid (8-methyl-8-aza-bicyclo[3.2.1]oct-3-yl)-amide] | 0.089 | –
Cc1cccc2[nH]c(C(=O)N[C@H]3C[C@H]4CC[C@@H](C3)N4C)nc12 [Example 24, 4-Methyl-1H-benzoimidazole-2-carboxylic acid (8-methyl-8-aza-bicyclo[3.2.1]oct-3-yl)-amide] | 0.27 | –
CN1CCN(C(=O)c2nc3cc(F)c(Cl)cc3[nH]2)CC1 [Example 14, (6-Chloro-5-fluoro-1H-benzoimidazol-2-yl)-(4-methyl-piperazin-1-yl)-methanone] | 0.053 | –
O=C(c1nc2cc(C(F)(F)F)ccc2[nH]1)N1CCNCC1 [Example 28, Piperazin-1-yl-(5-trifluoromethyl-1H-benzoimidazol-2-yl)-methanone] | 0.42 | –
Cc1ccc2oc(C(=O)N3CCN(C)CC3)nc2c1 [Example 37, (5-Methyl-benzooxazol-2-yl)-(4-methyl-piperazin-1-yl)-methanone] | 1.3 | –
CN1CCN(C(=O)c2nc3cc(C(=O)c4ccccc4)ccc3[nH]2)CC1 [Example 40, (5-Benzoyl-1H-benzoimidazol-2-yl)-(4-methyl-piperazin-1-yl)-methanone] | 8 | –
Cc1cccc2[nH]c(C(=O)N3CCNCC3)nc12 [Example 23, (4-Methyl-1H-benzoimidazol-2-yl)-piperazin-1-yl-methanone] | 0.135 | –
CNC(=C[N+](=O)[O-])NCCSCc1ccc(CN(C)C)o1 [ranatidine] | – | Fold Change (eosinophil shape change) (human eosinophils; [3]): 1.00; Fold Change (eosinophil shape change) (human eosinophils; [4]): 1.04; Fold Change (eosinophil shape change) (human eosinophils; [5]): 1.21; Fold Change (eosinophil shape change) (human eosinophils; [6]): 1.49; Fold Change (eosinophil shape change) (human eosinophils; [7]): 1.64; effect on histamine-induced shape change (human eosinophils): did not alter the histamine-induced shape change
CN1CCCN(C(=O)c2nc3cc(F)c(Cl)cc3[nH]2)CC1 [Example 16, (6-Chloro-5-fluoro-1H-benzoimidazol-2-yl)-(4-methyl-[1,4]diazepan-1-yl)-methanone] | 1.3 | –
CN1CCCN(C(=O)c2nc3cc(F)c(F)cc3[nH]2)CC1 [Example 12, (5,6-Difluoro-1H-benzoimidazol-2-yl)-(4-methyl-[1,4]diazepan-1-yl)-methanone] | 0.807 | –
Cc1cccc2nc(C(=O)N3CCN(C)CC3)oc12 [Example 36, (7-Methyl-benzooxazol-2-yl)-(4-methyl-piperazin-1-yl)-methanone] | 1.2 | –
CN1CCN(C(=O)c2nc3ccccc3[nH]2)CC1 [Example 1, (1H-Benzoimidazol-2-yl)-(4-methyl-piperazin-1-yl)-methanone] | 0.032 | –
CCN1CCN(C(=O)c2nc3cc(F)ccc3[nH]2)CC1 [Example 30, (4-Ethyl-piperazin-1-yl)-(5-fluoro-1H-benzoimidazol-2-yl)-methanone] | 0.37 | –
Cc1cccc2oc(C(=O)N3CCN(C)CC3)nc12 [Example 38, (4-Methyl-benzooxazol-2-yl)-(4-methyl-piperazin-1-yl)-methanone] | 1.6 | –

SMILES | Ki [1] [µM] | other results
CN1CCN(C(=O)c2nc3cc(Cl)ccc3[nH]2)CC1 [Example 6, (5-Chloro-1H-benzoimidazol-2-yl)-(4-methyl-piperazin-1-yl)-methanone] | 0.025 | Ki [2]: 0.025 µM
CC1CN(C(=O)c2nc3cc(F)c(F)cc3[nH]2)CCN1 (stereo not shown) [Example 11, (5,6-Difluoro-1H-benzoimidazol-2-yl)-(3-methyl-piperazin-1-yl)-methanone] | 0.355 | –
CN1CCN(C(=O)c2nc3cc(F)ccc3[nH]2)CC1 [Example 29, (5-Fluoro-1H-benzoimidazol-2-yl)-(4-methyl-piperazin-1-yl)-methanone] | 0.026 | –
O=C(c1nc2cc(F)c(Cl)cc2[nH]1)N1CCNCC1 [Example 15, (6-Chloro-5-fluoro-1H-benzoimidazol-2-yl)-piperazin-1-yl-methanone] | 0.216 | –
CN1CCN(C(=O)c2nc3ccccc3o2)CC1 [Example 35, Benzooxazol-2-yl-(4-methyl-piperazin-1-yl)-methanone] | 0.62 | –
CC1CN(C(=O)c2nc3cc(F)ccc3[nH]2)CCN1 (stereo not shown) [Example 32, (5-Fluoro-1H-benzoimidazol-2-yl)-(3-methyl-piperazin-1-yl)-methanone] | 0.46 | –
CN1CCN(C(=O)c2nc3ccccc3s2)CC1 [Example 39, Benzothiazol-2-yl-(4-methyl-piperazin-1-yl)-methanone] | 0.81 | –
Cc1cccc2[nH]c(C(=O)N3CCN(C)CC3)nc12 [Example 22, (4-Methyl-1H-benzoimidazol-2-yl)-(4-methyl-piperazin-1-yl)-methanone] | 0.031 | –
Cc1cc2nc(C(=O)N3CCNCC3)[nH]c2cc1Cl [Example 19, (5-Chloro-6-methyl-1H-benzoimidazol-2-yl)-piperazin-1-yl-methanone] | 1 | –
CC1CN(C(=O)c2nc3ccccc3[nH]2)CCN1 (stereo not shown) [Example 3, (1H-Benzoimidazol-2-yl)-(3-methyl-piperazin-1-yl)-methanone] | 0.331 | –
Cc1ccc2[nH]c(C(=O)N3CCN(C)CC3)nc2c1 [Example 26, (5-Methyl-1H-benzoimidazol-2-yl)-(4-methyl-piperazin-1-yl)-methanone] | 0.528 | –
CN1CCN(C(=N)c2nc3cc(Cl)ccc3[nH]2)CC1 [Example 45, C-(5-Chloro-1H-benzoimidazol-2-yl)-C-(4-methyl-piperazin-1-yl)-methyleneamine] | 0.11 | –
CN1CCN(C(=O)c2nc3c(Cl)cccc3[nH]2)CC1 [Example 41, (4-Chloro-1H-benzoimidazol-2-yl)-(4-methyl-piperazin-1-yl)-methanone] | 0.057 | –
CN(C)CCOC(c1ccccc1)c1ccccc1 [diphenhydramine] | – | Fold Change (eosinophil shape change) (human eosinophils; [3]): 1.00; Fold Change (eosinophil shape change) (human eosinophils; [4]): 1.03; Fold Change (eosinophil shape change) (human eosinophils; [5]): 1.18; Fold Change (eosinophil shape change) (human eosinophils; [6]): 1.50; Fold Change (eosinophil shape change) (human eosinophils; [7]): 1.63; effect on histamine-induced shape change (human eosinophils): did not alter the histamine-induced shape change
Cc1cc2nc(C(=O)N3CCN(C)CC3)[nH]c2cc1Cl [Example 18, (5-Chloro-6-methyl-1H-benzoimidazol-2-yl)-(4-methyl-piperazin-1-yl)-methanone] | 0.226 | –
CN1CCN(C(=O)c2nc3cccnc3[nH]2)CC1 [Example 34, (3H-Imidazo[4,5-b]pyridin-2-yl)-(4-methyl-piperazin-1-yl)-methanone] | 0.833 | –
CN1CCCN(C(=O)c2nc3ccccc3[nH]2)CC1 [Example 4, (1H-Benzoimidazol-2-yl)-(4-methyl-[1,4]diazepan-1-yl)-methanone] | 1.4 | –
CN1CCN(C(=O)c2nc3c(F)cc(F)cc3[nH]2)CC1 [Example 46, (4,6-Difluoro-1H-benzoimidazol-2-yl)-(4-methyl-piperazin-1-yl)-methanone] | 0.064 | –
Cc1cccc2[nH]c(C(=O)N3CCNC(C)C3)nc12 (stereo not shown) [Example 20, (4-Methyl-1H-benzoimidazol-2-yl)-(3-methyl-piperazin-1-yl)-methanone] | 0.156 | –
CCN1CCN(C(=O)c2nc3c(C)cccc3[nH]2)CC1 [Example 21, (4-Ethyl-piperazin-1-yl)-(4-methyl-1H-benzoimidazol-2-yl)-methanone] | 0.468 | –
Cc1c(F)ccc2[nH]c(C(=O)N3CCN(C)CC3)nc12 [Example 48, (5-Fluoro-4-methyl-1H-benzoimidazol-2-yl)-(4-methyl-piperazin-1-yl)-methanone] | 0.023 | –
CCN1CCN(C(=O)c2nc3cc(F)c(F)cc3[nH]2)CC1 [Example 10, (5,6-Difluoro-1H-benzoimidazol-2-yl)-(4-ethyl-piperazin-1-yl)-methanone] | 0.62 | –
